From patent US7371766B2, “Curcumin analogs with anti-tumor and anti-angiogenic properties” (Emory University, priority 1999, dated 2008)
Like-named read-outs stand apart in the source and are kept apart here.

Assays:
NCI-H460 = assay: cells; details: Homo sapiens, NCI-H460, 48 h; for GI50: read-out: Median Growth Inhibitory Concentration (GI50); for CC50: read-out: Median Lethal Concentration (LC50)
SNB-75 = assay: cells; details: Homo sapiens, SNB-75, 48 h; for GI50: read-out: Median Growth Inhibitory Concentration (GI50); for CC50: read-out: Median Lethal Concentration (LC50)
DU-145 = assay: cells; details: Homo sapiens, DU-145, 48 h; for GI50: read-out: Median Growth Inhibitory Concentration (GI50); for CC50: read-out: Median Lethal Concentration (LC50)
MDA-MB-435 = assay: cells; details: Homo sapiens, MDA-MB-435, 48 h; for GI50: read-out: Median Growth Inhibitory Concentration (GI50); for CC50: read-out: Median Lethal Concentration (LC50)
UACC-62 = assay: cells; details: Homo sapiens, UACC-62, 48 h; for GI50: read-out: Median Growth Inhibitory Concentration (GI50); for CC50: read-out: Median Lethal Concentration (LC50)
MALME-3M = assay: cells; details: Homo sapiens, 48 h; for GI50: read-out: Median Growth Inhibitory Concentration (GI50); for CC50: read-out: Median Lethal Concentration (LC50)
MCF-7 = assay: cells; details: Homo sapiens, MCF7, 48 h; for GI50: read-out: Median Growth Inhibitory Concentration (GI50); for CC50: read-out: Median Lethal Concentration (LC50)
NCI/ADR-RES = assay: cells; details: Homo sapiens, 48 h; for GI50: read-out: Median Growth Inhibitory Concentration (GI50); for CC50: read-out: Median Lethal Concentration (LC50)
CAKI-1 = assay: cells; details: Homo sapiens, CAKI-1, 48 h; for GI50: read-out: Median Growth Inhibitory Concentration (GI50); for CC50: read-out: Median Lethal Concentration (LC50)
OVCAR-8 = assay: cells; details: Homo sapiens, OVCAR-8, 48 h; for GI50: read-out: Median Growth Inhibitory Concentration (GI50); for CC50: read-out: Median Lethal Concentration (LC50)
HCT-116 = assay: cells; details: Homo sapiens, HCT-116, 48 h; for GI50: read-out: Median Growth Inhibitory Concentration (GI50); for CC50: read-out: Median Lethal Concentration (LC50)
OVCAR-5 = assay: cells; details: Homo sapiens, OVCAR-5, 48 h; for GI50: read-out: Median Growth Inhibitory Concentration (GI50); for CC50: read-out: Median Lethal Concentration (LC50)
RXF 393 = assay: cells; details: Homo sapiens, RXF 393, 48 h; for GI50: read-out: Median Growth Inhibitory Concentration (GI50); for CC50: read-out: Median Lethal Concentration (LC50)
RPMI-7951 human melanoma = assay: Neutral Red Assay, cell viability, RPMI-7951; details: Homo sapiens
Protocol: RPMI-795 1, MDA-MB-231 and MDA-MB-435 cell lines were cultured in MEM-alpha medium (GIBCO-BRL, Long Island, N.Y.) containing 10% fetal bovine serum (RPMI-7951, MDA-MB-231) or 5% FBS (MDA-MB-435) at 37° C. and under 5% CO2/95% air. […] The cells were cultured in 48 well plates in all of the experiments described.
Neutral Red Assay was utilized to determine the effect of the compounds of the present invention on cell viability. Neutral Red was purchased from GIBCO-BRL (Long Island, N.Y.). Cells were plated at a concentration of 20,000 cells/well and cultured overnight. Compounds or vehicle (DMSO 0.1%) were then added and the plates were incubated for 72 hours. Supernatant from each well was either aspirated or collected and media containing Neutral Red (GIBCO-BRL, Long Island, N.Y.) at a concentration of 15 μl/ml was then added to each well. The plates were then incubated at 37° C. for 30 minutes. Next, the cells were washed with twice with PBS and alcoholic-HCl (0.5N—HCl/35% ethanol) was added to each well. The plates were then placed on a plate shaker until all residues were solubilized (pink color). The solubilized mixtures were then transferred to a 96 well plate and the absorbances were read on a micro-test plate reader at a wavelength of 570 nm.
Cell viability was determined by Neutral Red Assay.

T-47D = assay: cells; details: Homo sapiens, T47D, 48 h; for GI50: read-out: Median Growth Inhibitory Concentration (GI50); for CC50: read-out: Median Lethal Concentration (LC50)
EKVX = assay: cells; details: Homo sapiens, 48 h; for GI50: read-out: Median Growth Inhibitory Concentration (GI50); for CC50: read-out: Median Lethal Concentration (LC50)
SN12C = assay: cells; details: Homo sapiens, 48 h; for GI50: read-out: Median Growth Inhibitory Concentration (GI50); for CC50: read-out: Median Lethal Concentration (LC50)
BT-549 = assay: cells; details: Homo sapiens, BT-549, 48 h; for GI50: read-out: Median Growth Inhibitory Concentration (GI50); for CC50: read-out: Median Lethal Concentration (LC50)
[1] = test system: Sixty human tumor cell lines; assay: cells; details: 48 h; for GI50: read-out: Median Growth Inhibitory Concentration (GI50), Mean; for CC50: read-out: Median Lethal Concentration (LC50), Mean
[2] = test system: Sixty human tumor cell lines; details: NCI Anti-Tumor Screen, several cell types
IGROV1 = assay: cells; details: Homo sapiens, IGROV-1, 48 h; for GI50: read-out: Median Growth Inhibitory Concentration (GI50); for CC50: read-out: Median Lethal Concentration (LC50)
MDA-N = assay: cells; details: Homo sapiens, 48 h; for GI50: read-out: Median Growth Inhibitory Concentration (GI50); for CC50: read-out: Median Lethal Concentration (LC50)
SF-539 = assay: cells; details: Homo sapiens, SF-539, 48 h; for GI50: read-out: Median Growth Inhibitory Concentration (GI50); for CC50: read-out: Median Lethal Concentration (LC50)
TK-10 = assay: cells; details: Homo sapiens, TK-10, 48 h; for GI50: read-out: Median Growth Inhibitory Concentration (GI50); for CC50: read-out: Median Lethal Concentration (LC50)
UACC-257 = assay: cells; details: Homo sapiens, UACC-257, 48 h; for GI50: read-out: Median Growth Inhibitory Concentration (GI50); for CC50: read-out: Median Lethal Concentration (LC50)
M14 = assay: cells; details: Homo sapiens, M14, 48 h; for GI50: read-out: Median Growth Inhibitory Concentration (GI50); for CC50: read-out: Median Lethal Concentration (LC50)
SW-620 = assay: cells; details: Homo sapiens, SW-620, 48 h; for GI50: read-out: Median Growth Inhibitory Concentration (GI50); for CC50: read-out: Median Lethal Concentration (LC50)
U251 = assay: cells; details: Homo sapiens, U-251, 48 h; for GI50: read-out: Median Growth Inhibitory Concentration (GI50); for CC50: read-out: Median Lethal Concentration (LC50)
HCT-15 = assay: cells; details: Homo sapiens, HCT-15, 48 h; for GI50: read-out: Median Growth Inhibitory Concentration (GI50); for CC50: read-out: Median Lethal Concentration (LC50)
[3] = RPMI-7951, 72 h, read-out: Neutral Red Uptake, %
[4] = RPMI-7951, read-out: Cell Viability

Molecule `O=C(C=Cc1ccc(F)cc1F)C=Cc1ccc(F)cc1F` [EF9, 1,5-Bis(2,4-difluorophenyl)penta-1,4-dien-3-one] has a GI50 (NCI-H460) of 12.7 µM, a CC50 (NCI-H460) of 60.9 µM and a GI50 (SNB-75) of 11.2 µM. The CC50 (SNB-75) was 48.8 µM, the GI50 (DU-145) was 2.1 µM and the CC50 (DU-145) was 29 µM. It also gave a GI50 (MDA-MB-435) of 3.2 µM, a CC50 (MDA-MB-435) of 35.9 µM and a GI50 (UACC-62) of 13.9 µM. It also gave a CC50 (UACC-62) of 52.8 µM, a GI50 (MALME-3M) of 17.8 µM and a CC50 (MALME-3M) of 73.4 µM. The GI50 (MCF-7) was 3 µM, the CC50 (MCF-7) was 42.2 µM and the GI50 (NCI/ADR-RES) was 30.7 µM. The CC50 (NCI/ADR-RES) was > 100 µM, the GI50 (CAKI-1) was 15 µM and the CC50 (CAKI-1) was 93.4 µM. It also gave a GI50 (OVCAR-8) of 3.4 µM, a CC50 (OVCAR-8) of 85.3 µM and a GI50 (HCT-116) of 1.9 µM. For the same molecule, the CC50 (HCT-116) was 7.7 µM, the GI50 (OVCAR-5) was 20 µM and the CC50 (OVCAR-5) was 63.3 µM. It also gave a GI50 (RXF 393) of 2.3 µM, a CC50 (RXF 393) of 17.9 µM and a viability at 5 µM (RPMI-7951 human melanoma; [3]) of 88%. For the same molecule, the viability at 20 µM (RPMI-7951 human melanoma; [3]) was 11%, the viability at 5 µM (RPMI-7951 human melanoma; [4]) was 92% and the viability at 20 µM (RPMI-7951 human melanoma; [4]) was 70%. It also gave a GI50 (T-47D) of 4.4 µM, a CC50 (T-47D) of 56.1 µM and a GI50 (EKVX) of 11.8 µM. It also gave a CC50 (EKVX) of 49.1 µM, a GI50 (SN12C) of 17.1 µM and a CC50 (SN12C) of 62.3 µM. The GI50 (BT-549) was 6.5 µM, the CC50 (BT-549) was 47.3 µM and the GI50 [1] was 7.2 µM. The CC50 [1] was 52.5 µM, the “LC50 compared with CISPLATIN, in words” value [2] was “lower LC50 than the chemotherapeutic agent CISPLATIN for several cell types” and the GI50 (IGROV1) was 3.8 µM. For the same molecule, the CC50 (IGROV1) was 46.2 µM, the GI50 (MDA-N) was 2.9 µM and the CC50 (MDA-N) was 33.2 µM. The GI50 (SF-539) was 2.6 µM, the CC50 (SF-539) was 23.1 µM and the GI50 (TK-10) was 17.9 µM. The CC50 (TK-10) was 56.5 µM, the GI50 (UACC-257) was 16 µM and the CC50 (UACC-257) was 62.1 µM. It also gave a GI50 (M14) of 4.1 µM, a CC50 (M14) of 48.6 µM and a GI50 (SW-620) of 3.2 µM. For the same molecule, the CC50 (SW-620) was 62.6 µM, the GI50 (U251) was 2.1 µM and the CC50 (U251) was 12.9 µM. The GI50 (HCT-15) was 4.9 µM and the CC50 (HCT-15) was 64.7 µM.
`CC(=O)O.O=C1C(=Cc2ccccc2F)CNCC1=Cc1ccccc1F` [EF24, 3,5-Bis-(2-fluorobenzylidene)-piperidin-4-one-acetate] showed a GI50 (NCI-H460) of 81 µM, a CC50 (NCI-H460) of 50.1 µM and a GI50 (SNB-75) of 2 µM. The CC50 (SNB-75) was 8.8 µM, the GI50 (DU-145) was 0.7 µM and the CC50 (DU-145) was 5.4 µM. It also gave a GI50 (MDA-MB-435) of 0.6 µM, a CC50 (MDA-MB-435) of 7.4 µM and a GI50 (UACC-62) of 1.6 µM. For the same molecule, the CC50 (UACC-62) was 4.5 µM, the GI50 (MALME-3M) was 2.3 µM and the CC50 (MALME-3M) was 25.2 µM. For the same molecule, the GI50 (MCF-7) was 0.2 µM, the CC50 (MCF-7) was 5 µM and the GI50 (NCI/ADR-RES) was 0.9 µM. The CC50 (NCI/ADR-RES) was 60.6 µM, the GI50 (CAKI-1) was 0.8 µM and the CC50 (CAKI-1) was 27.2 µM. For the same molecule, the GI50 (OVCAR-8) was 0.4 µM, the CC50 (OVCAR-8) was 31.3 µM and the GI50 (HCT-116) was 0.2 µM. The CC50 (HCT-116) was 1.8 µM, the GI50 (OVCAR-5) was 1.3 µM and the CC50 (OVCAR-5) was 9.2 µM. The GI50 (RXF 393) was 0.6 µM, the CC50 (RXF 393) was 3.6 µM and the GI50 (T-47D) was 1.3 µM. For the same molecule, the CC50 (T-47D) was 51.9 µM, the GI50 (EKVX) was 0.9 µM and the CC50 (EKVX) was 9.4 µM. For the same molecule, the GI50 (SN12C) was 1 µM, the CC50 (SN12C) was 5.4 µM and the GI50 (BT-549) was 0.7 µM. The CC50 (BT-549) was 4.7 µM, the GI50 [1] was 0.7 µM and the CC50 [1] was 13.2 µM. For the same molecule, the “GI50 compared with CISPLATIN, in words” value [2] was “lower GI50 than the chemotherapeutic agent CISPLATIN for several cell types”, the “LC50 compared with CISPLATIN, in words” value [2] was “lower LC50 than the chemotherapeutic agent CISPLATIN for several cell types” and the GI50 (IGROV1) was 0.8 µM. The CC50 (IGROV1) was 7.1 µM, the GI50 (MDA-N) was 0.5 µM and the CC50 (MDA-N) was 5.6 µM. The GI50 (SF-539) was 0.3 µM, the CC50 (SF-539) was 7.6 µM and the GI50 (TK-10) was 3.1 µM. For the same molecule, the CC50 (TK-10) was 27.8 µM, the GI50 (UACC-257) was 1.8 µM and the CC50 (UACC-257) was 13.5 µM. For the same molecule, the GI50 (M14) was 1.2 µM, the CC50 (M14) was 27.7 µM and the GI50 (SW-620) was 0.2 µM. For the same molecule, the CC50 (SW-620) was 4.4 µM, the GI50 (U251) was 0.2 µM and the CC50 (U251) was 0.8 µM. It also gave a GI50 (HCT-15) of 0.2 µM and a CC50 (HCT-15) of 13.6 µM.
